Assay results taken from ChEMBL document CHEMBL5649170, “Sustained microglial depletion with CSF1R inhibitor impairs parenchymal plaque development in an Alzheimer's disease model” (Nat Commun, 2019).
The source made the active and inactive calls. No cut-off for these calls is given here.

Key:
[1] = target: AMP-activated protein kinase (AMPK) alpha-1/beta-1/gamma-1 (Homo sapiens, UniProt P54619+Q13131+Q9Y478); assay: Inhibition of AMPK_A1/B1/G1 (unknown origin); format: protein-complex assay
[2] = target: Calcium/calmodulin-dependent protein kinase type II subunit alpha (Homo sapiens, UniProt Q9UQM7); assay: Inhibition of CAMK2A (unknown origin)
Sequence of Calcium/calmodulin-dependent protein kinase type II subunit alpha (Q9UQM7 whole entry): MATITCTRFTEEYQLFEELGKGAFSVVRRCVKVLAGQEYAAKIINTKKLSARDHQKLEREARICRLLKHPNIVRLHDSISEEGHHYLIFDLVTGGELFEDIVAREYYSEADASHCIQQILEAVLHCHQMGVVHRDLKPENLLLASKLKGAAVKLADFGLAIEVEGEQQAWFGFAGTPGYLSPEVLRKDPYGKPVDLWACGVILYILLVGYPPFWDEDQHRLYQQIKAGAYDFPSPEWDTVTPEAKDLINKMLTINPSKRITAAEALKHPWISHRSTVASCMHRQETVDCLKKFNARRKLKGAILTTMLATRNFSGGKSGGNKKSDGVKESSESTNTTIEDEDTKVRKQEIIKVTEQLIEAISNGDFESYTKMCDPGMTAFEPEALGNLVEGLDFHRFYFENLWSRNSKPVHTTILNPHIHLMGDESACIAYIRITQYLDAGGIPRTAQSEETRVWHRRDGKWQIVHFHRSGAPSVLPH

[3] = target: Homeodomain-interacting protein kinase 2 (Homo sapiens, UniProt Q9H2X6); assay: Inhibition of HIPK2 (unknown origin)
Sequence of Homeodomain-interacting protein kinase 2 (Q9H2X6 whole entry): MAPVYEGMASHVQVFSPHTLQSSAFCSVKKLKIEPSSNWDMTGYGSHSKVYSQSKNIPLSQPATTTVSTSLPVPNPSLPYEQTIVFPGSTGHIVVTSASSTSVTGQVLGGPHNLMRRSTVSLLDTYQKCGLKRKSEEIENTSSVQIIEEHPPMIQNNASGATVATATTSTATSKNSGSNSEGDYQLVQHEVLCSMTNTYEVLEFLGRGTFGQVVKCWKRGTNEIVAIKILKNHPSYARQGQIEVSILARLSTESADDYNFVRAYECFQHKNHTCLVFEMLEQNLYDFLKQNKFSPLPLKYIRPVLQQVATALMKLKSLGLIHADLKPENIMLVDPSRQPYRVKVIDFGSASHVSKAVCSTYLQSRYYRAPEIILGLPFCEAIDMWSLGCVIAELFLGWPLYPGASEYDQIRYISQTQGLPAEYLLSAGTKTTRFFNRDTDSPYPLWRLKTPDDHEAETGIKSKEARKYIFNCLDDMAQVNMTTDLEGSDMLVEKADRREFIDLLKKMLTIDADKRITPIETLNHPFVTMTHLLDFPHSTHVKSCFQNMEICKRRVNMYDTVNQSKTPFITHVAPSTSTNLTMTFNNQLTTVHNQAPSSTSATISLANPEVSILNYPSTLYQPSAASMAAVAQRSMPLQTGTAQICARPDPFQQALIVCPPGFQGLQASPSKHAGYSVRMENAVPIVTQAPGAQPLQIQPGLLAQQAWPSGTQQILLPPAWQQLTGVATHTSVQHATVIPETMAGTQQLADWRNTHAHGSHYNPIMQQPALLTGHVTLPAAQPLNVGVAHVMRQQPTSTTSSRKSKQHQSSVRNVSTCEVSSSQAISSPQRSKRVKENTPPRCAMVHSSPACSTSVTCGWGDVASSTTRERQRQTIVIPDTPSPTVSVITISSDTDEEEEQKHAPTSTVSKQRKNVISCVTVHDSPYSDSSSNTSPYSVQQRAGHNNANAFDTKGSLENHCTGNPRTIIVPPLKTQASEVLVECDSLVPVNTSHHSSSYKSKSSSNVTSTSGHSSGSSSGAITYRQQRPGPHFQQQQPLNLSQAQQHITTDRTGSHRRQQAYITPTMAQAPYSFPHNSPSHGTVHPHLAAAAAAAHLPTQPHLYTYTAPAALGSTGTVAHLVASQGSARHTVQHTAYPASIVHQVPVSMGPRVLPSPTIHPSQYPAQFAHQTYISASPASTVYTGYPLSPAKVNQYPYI

[4] = target: Mitogen-activated protein kinase kinase kinase kinase 2 (Homo sapiens, UniProt Q12851); assay: Inhibition of MAP4K2 (unknown origin)
[5] = target: Serine/threonine-protein kinase Nek6 (Homo sapiens, UniProt Q9HC98); assay: Inhibition of NEK6 (unknown origin)
Sequence of Serine/threonine-protein kinase Nek6 (Q9HC98 whole entry): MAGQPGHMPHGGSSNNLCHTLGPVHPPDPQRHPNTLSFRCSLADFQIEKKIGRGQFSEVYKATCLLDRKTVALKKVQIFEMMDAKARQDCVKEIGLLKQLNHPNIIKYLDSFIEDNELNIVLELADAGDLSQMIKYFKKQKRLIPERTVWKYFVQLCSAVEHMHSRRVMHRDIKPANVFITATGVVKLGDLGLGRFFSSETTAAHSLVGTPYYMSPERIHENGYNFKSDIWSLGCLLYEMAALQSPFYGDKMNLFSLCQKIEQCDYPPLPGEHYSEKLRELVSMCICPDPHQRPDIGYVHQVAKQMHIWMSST

[6] = target: NT-3 growth factor receptor (Homo sapiens, UniProt Q16288); assay: Inhibition of NTRK3 (unknown origin)
Sequence of NT-3 growth factor receptor (Q16288 whole entry): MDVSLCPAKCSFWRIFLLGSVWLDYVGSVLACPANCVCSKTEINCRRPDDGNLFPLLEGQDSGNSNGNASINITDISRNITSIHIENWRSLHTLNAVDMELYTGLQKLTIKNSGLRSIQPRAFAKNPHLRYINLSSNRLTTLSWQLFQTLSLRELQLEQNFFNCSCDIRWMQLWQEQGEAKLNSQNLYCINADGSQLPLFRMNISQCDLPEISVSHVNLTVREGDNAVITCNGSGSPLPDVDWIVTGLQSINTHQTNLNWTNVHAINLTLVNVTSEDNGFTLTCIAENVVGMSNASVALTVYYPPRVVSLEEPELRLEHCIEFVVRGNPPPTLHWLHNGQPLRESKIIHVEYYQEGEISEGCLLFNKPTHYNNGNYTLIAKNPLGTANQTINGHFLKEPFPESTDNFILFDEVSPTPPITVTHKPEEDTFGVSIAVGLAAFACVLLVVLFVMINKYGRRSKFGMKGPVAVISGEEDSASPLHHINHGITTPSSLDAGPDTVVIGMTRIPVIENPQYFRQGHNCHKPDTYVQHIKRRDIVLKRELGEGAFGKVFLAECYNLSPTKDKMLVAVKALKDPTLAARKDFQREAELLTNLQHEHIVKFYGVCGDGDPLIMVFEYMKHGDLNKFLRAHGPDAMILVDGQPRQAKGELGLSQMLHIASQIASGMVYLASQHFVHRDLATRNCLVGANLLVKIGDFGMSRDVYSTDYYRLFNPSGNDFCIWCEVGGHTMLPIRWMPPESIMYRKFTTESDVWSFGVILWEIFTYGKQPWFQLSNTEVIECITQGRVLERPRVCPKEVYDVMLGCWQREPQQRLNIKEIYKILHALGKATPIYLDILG

[7] = target: PI3-kinase p110-delta/p85-alpha (Homo sapiens, UniProt O00329); assay: Inhibition of PIK3CD/PIK3R1 (unknown origin); format: protein-complex assay
[8] = target: Protein kinase C alpha type (Homo sapiens, UniProt P17252); assay: Inhibition of PRKCA (unknown origin)
[9] = target: Proto-oncogene tyrosine-protein kinase receptor Ret (Homo sapiens, UniProt P07949, V804L); assay: Inhibition of RET V804L mutant (unknown origin)
[10] = Oral bioavailability in mouse at 45 mg/kg administered as single via gavage; format: ADME, organism-based; conditions: in vivo
[11] = Drug concentration in 5XFAD mouse plasma at 1200 ppm administered as rodent chow for 180 days; format: ADME, cell-free; conditions: route po, time 180 day
Mus musculus [12] = assay: Antialzheimer activity in wildtype mouse assessed as number of Iba positive cells per FOV in somatosensory cortex at 1200 ppm administered as rodent chow starting from 1.5 months and measured after 4 months (reference value: 304 to 351); format: functional; conditions: route po, time 2.5 months, 1825 h
Mus musculus [13] = assay: Antialzheimer activity in 5XFAD mouse assessed as time spent in center zone at 1200 ppm administered as rodent chow for 10 to 24 weeks by Open field test (reference value: 14.9 to 130.9 sec); format: functional; conditions: route po, time 10-24 weeks
[14] = Toxicity in wildtype mouse assessed as total number of arm entries at 1200 ppm administered as rodent chow for 10 to 24 weeks by Y-maze test (reference value: 14 to 35); conditions: in vivo, po, time 10-24 weeks
[15] = target: T1, Macrophage colony-stimulating factor 1 receptor (Mus musculus) (UniProt P09581); assay: In vivo inhibition of CSF1R in wildtype mouse assessed as microglial elimination in cortex at 1200 ppm administered as rodent chow for 10 weeks by […] based confocal microscopic analysis relative to control; format: functional; parameters: scale not given: the % may be the effect or the level left; conditions: route po
T1 sequence (whole entry): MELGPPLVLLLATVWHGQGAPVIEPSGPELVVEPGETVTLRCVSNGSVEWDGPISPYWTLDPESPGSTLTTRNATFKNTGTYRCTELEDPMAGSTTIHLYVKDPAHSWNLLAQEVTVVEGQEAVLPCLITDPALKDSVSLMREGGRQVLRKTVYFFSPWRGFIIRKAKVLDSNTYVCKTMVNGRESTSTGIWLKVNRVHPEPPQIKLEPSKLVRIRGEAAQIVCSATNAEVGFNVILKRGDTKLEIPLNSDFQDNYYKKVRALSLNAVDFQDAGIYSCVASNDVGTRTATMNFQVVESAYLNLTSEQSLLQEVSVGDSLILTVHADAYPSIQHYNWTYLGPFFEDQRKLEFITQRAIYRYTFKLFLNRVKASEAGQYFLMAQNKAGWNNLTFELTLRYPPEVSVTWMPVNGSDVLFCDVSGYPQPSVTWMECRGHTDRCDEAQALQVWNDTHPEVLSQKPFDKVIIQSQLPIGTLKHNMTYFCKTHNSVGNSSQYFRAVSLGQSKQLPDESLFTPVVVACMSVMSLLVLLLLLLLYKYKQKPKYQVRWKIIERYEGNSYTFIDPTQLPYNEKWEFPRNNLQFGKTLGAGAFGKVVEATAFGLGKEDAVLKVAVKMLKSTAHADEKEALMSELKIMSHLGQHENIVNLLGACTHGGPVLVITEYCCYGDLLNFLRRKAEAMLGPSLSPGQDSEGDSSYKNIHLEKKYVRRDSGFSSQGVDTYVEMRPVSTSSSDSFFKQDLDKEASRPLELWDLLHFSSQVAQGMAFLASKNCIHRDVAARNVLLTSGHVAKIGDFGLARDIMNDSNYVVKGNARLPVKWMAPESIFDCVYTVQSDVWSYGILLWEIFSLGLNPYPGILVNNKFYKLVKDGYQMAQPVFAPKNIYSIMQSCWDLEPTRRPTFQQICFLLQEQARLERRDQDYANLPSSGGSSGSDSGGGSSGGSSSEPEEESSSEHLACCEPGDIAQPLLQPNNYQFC

[16] = Effect on Cx3cr1 gene expression in wild type mouse hippocampus at 1200 ppm administered as rodent chow starting from 1.5 months and measured after 7 months by RNA-Seq analysis (reference value: 9.911 to 12.014 RPKM); format: functional; conditions: route po, time 5.5 months, 4015 h
[17] = Effect on Cst7 gene expression in wild type mouse cortex at 1200 ppm administered as rodent chow starting from 1.5 months and measured after 7 months by RNA-Seq analysis (reference value: 0.102 to 0.891 RPKM); format: functional; conditions: route po, time 5.5 months, 4015 h
[18] = Effect on Cst7 gene expression in 5XFAD mouse thalamus at 1200 ppm administered as rodent chow starting from 1.5 months and measured after 7 months by RNA-Seq analysis (reference value: 9.686 to 22.113 RPKM); format: functional; conditions: route po, time 5.5 months, 4015 h
[19] = Effect on Itgax gene expression in wild type mouse hippocampus at 1200 ppm administered as rodent chow starting from 1.5 months and measured after 7 months by RNA-Seq analysis (reference value: 0.057 to 0.109 RPKM); format: functional; conditions: route po, time 5.5 months, 4015 h
[20] = Prevention of Rnf217 gene downregulation in 5XFAD mouse hippocampus assessed as percent change in Reads Per kilo base per Million mapped reads at 1200 ppm administered as rodent chow starting from 1.5 months and measured after 7 months by RNA-Seq analysis (reference value: 66.726 to 80.840 %); format: functional; conditions: route po, time 5.5 months, 4015 h
[21] = target: T1, Macrophage colony-stimulating factor 1 receptor (Mus musculus); assay: In vivo inhibition of CSF1R in wildtype mouse assessed as number of Iba1 positive cells per FOV in somatosensory cortex at 1200 ppm administered as rodent chow starting from 1.5 months to 4 months followed by compound removal and measured after 1 months by immunolabelling based confocal microscopic analysis (reference value: 304 to 351); format: functional; conditions: route po, time 2.5 months
Mus musculus [22] = assay: Antialzheimer activity in 5XFAD mouse assessed as reduction in plaque formation by measuring average plaque volume in somatosensory cortex at 1200 ppm administered as rodent chow starting from 1.5 months and measured after 4 months by immunolabeling based confocal microscopic analysis; format: functional; conditions: route po, time 2.5 months, 1825 h
Mus musculus [23] = assay: Induction of cerebral amyloid angiopathy in […] mouse at 1200 ppm administered as rodent chow for 24 weeks by immunolabeling based confocal microscopic analysis; format: functional, organism-based; conditions: route po

Sequence of AMP-activated protein kinase (AMPK) alpha-1/beta-1/gamma-1 (P54619 whole entry): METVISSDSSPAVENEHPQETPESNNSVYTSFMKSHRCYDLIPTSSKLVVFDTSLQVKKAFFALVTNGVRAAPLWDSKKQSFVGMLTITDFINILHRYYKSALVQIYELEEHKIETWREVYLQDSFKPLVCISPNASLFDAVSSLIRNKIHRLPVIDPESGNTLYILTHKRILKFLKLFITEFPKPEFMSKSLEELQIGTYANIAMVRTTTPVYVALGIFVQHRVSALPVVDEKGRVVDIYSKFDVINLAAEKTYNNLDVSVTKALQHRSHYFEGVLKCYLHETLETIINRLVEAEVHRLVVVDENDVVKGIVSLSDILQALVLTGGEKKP
Sequence of AMP-activated protein kinase (AMPK) alpha-1/beta-1/gamma-1 (Q9Y478 whole entry): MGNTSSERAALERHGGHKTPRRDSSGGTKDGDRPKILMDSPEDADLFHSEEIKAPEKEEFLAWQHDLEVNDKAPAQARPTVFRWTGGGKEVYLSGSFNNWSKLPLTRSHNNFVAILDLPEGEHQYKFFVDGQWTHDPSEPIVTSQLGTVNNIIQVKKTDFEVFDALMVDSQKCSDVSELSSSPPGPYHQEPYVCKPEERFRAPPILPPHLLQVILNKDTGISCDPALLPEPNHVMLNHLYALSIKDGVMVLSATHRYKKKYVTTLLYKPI
Sequence of AMP-activated protein kinase (AMPK) alpha-1/beta-1/gamma-1 (Q13131 whole entry): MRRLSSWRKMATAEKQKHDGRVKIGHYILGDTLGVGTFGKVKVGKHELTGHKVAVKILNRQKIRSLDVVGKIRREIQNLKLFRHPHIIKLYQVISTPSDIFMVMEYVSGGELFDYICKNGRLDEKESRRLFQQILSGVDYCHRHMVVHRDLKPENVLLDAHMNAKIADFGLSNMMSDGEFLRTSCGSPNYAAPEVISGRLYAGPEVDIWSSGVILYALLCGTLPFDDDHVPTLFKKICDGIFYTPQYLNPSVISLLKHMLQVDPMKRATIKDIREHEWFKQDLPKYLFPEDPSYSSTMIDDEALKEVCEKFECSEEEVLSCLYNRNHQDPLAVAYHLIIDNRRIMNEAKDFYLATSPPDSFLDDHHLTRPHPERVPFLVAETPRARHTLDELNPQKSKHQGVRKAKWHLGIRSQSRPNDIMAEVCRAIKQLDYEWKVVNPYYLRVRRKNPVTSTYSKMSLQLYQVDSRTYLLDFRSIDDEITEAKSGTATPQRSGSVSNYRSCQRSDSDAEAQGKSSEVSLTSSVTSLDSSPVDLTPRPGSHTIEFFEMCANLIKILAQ

COc1ncc(F)cc1CNc1ccc(Cc2c[nH]c3ncc(C)cc23)c(F)n1 [PLX-5622]
IC50 [1]: > 1000 nM | IC50 [2]: > 1000 nM | IC50 [3]: > 1000 nM | IC50 [4]: > 1000 nM | IC50 [5]: > 1000 nM | IC50 [6]: > 1000 nM | IC50 [7]: > 1000 nM | IC50 [8]: > 1000 nM | IC50 [9]: > 1000 nM | bioavailability [10]: 59% | concentration at 4320 h [11]: 9090 ng/mL | Activity (Mus musculus [12]): 0 | Time (Mus musculus [13]): 32.4 s | Activity [14]: 14 | Activity [15]: > 99% | Activity [16]: 0.074 RPKM | Activity [17]: 0 RPKM | Activity [18]: 0.096 RPKM | Activity [19]: 0 RPKM | Activity [20]: 95.371% | Activity [21]: 108 | Activity (Mus musculus [22]): 1533.351 um3 | Activity (Mus musculus [23]): inactive
